Source: patent US20050053625A1, “Method of treating viral infections” (priority 2001, published 2005)

Assays:
WHV = conditions: cited from earlier work
HBV M protein = assay type: cell-based; conditions: for secretion of the M protein: indicated concentrations, three days, FIG. 4
Description: Hep G2 cells were transfected with an M only expression vector and the next day the cells divided equally into 6 well trays. Compound was added one day latter at the indicated concentrations and the media changed every two days. The presence of sub-viral particles in the medium was detected via the Abbott Diagnostics Auszyme Monoclonal Diagnostic Kit as per manufacture's directions. For Graph: Y-axis is the OD at 492. X-axis indicates the compounds or cells used in the assay.
Hep G2 cells transfected with the HBV M expression vector were treated with the glucosidase inhibitor NB-DNJ (4.5 mM and 6 days latter the amount of M protein associated with the culture medium (secreted) and the cells (retained) determined by ELISA. See text for more details. For graph: x-axis, Drug treatment and location of protein; for y-axis, % of HBV M protein as compared to untreated
Hep G2 cells were transfected with the M only expression vector and seeded as daughter flasks into 6 well trays. Following 4 days of treatment of glucosidase inhibitor (NB-DNJ (4.5 mM)), drug was either removed (in samples labels as —R) or left on as a control. Day 0 is the time in which drug was removed. […] Day 3 and Day 5 are days after drug removal. For Graph: Y-axis is the OD at 492. X-axis indicates the compounds or cells used in the assay. UN=untreated sample; Un-R is the untreated rebound sample; NB=N-butyl-DNJ; NB-R=N-butyl-DNJ rebound sample.
HBV M protein secretion is sensitive to glucosidase inhibition. Our previous work has determined that the secretion of HBV sub-viral particles containing the M protein was sensitive to glucosidase inhibition. (Mehta et al., 1997). That is, when Hep G2 2.215 cells were treated with the glucosidase inhibitor NB-DNJ, purified sub-viral particles appeared to lack the M protein. However, it was unclear if this was the result of the M protein's sensitivity to glucosidase inhibition or required some other viral factor. To test this hypothesis, an expression vector (pCMV-MS^−X) directs the expression of HBV M, but no other viral protein, was created. This “M only” expression vector was then used to determine if the M protein itself, in the absence of other viral functions, was sensitive to glucosidase inhibition. In addition, an expression vector, unable to express “M”, but able to express “S” was made on the same plasmid backbone as the “M” only vector, as was used as a control (pCMV-M^−SX). For these studies three imino sugars were used: N-butyl-DNJ, N-nonyl-DNJ and N-nonyl-DGJ. N-butyl-DNJ is our standard glucosidase inhibitor and has been used by several labs for over 10 years (Carlson et al.,1995, Block et al., 1994). […] Briefly, Hep G2 cells were transfected with the expression vectors pCMV HBV MS^−X and pCMV HBV M^−SX and subsequently seeded into fresh 6 well trays. The transfected cells were treated with the indicated concentrations of NB-DNJ, NN-DNJ or NN-DGJ (as a negative control) and three days latter the media analyzed for the presence of the HBV M or HBV S protein as described in Mehta et al, 2001. […] Fore example, concentrations of NN-DNJ which have no impact upon glycan inhibition, as determined by glycan analysis or α-1-acid-glycoprotein secretion, had no effect upon HBV M protein secretion (data not shown). In contrast to the effect of the glucosidase inhibitors on M protein secretion, the secretion of the HBV S protein was insensitive to either NB-DNJ or NN-DNJ providing further proof that the S protein is insensitive to glucosidase inhibition (data not shown; Block et al., 1994, Mehta et al., 1997, Werr & Prange, 1998). To determine if the secretion of the HBV M protein was prevented by another non-glucosidase mechanism, other compounds with the same alkyl side chain (tail) but altered imino sugar head groups, were synthesized. For example, NN-DGJ has the same chain length as NN-DNJ but is not a glucosidase inhibitor. […]

glucosidase = experiment: Glucosidase / glycan processing inhibition in cells; assay type: cell-based
[1] = test system: bovine viral diarrhea virus (BVDV); experiment: BVDV in mammalian cells in tissue culture; assay type: cell-based
Text: We have discovered that cytotoxicity resulting from exposure of mammalian cells in tissue culture to bovine viral diarrhea virus (BVDV) is prevented by addition of a glucosidase inhibitor to the tissue culture medium. The glucosidase inhibitors useful according to the present invention include, but are not limited to a derivative of 1,5-dideoxy-1,5-imino-D-glucitol (DNJ), in particular, N-butyl-DNJ (NBDNJ). […] Because BVDV is an accepted tissue culture model of hepatitis C virus (HCV) (Henzler, H.-J. and K. Kaiser (1998) Nature Biotech 16:1077-1078), the compositions and methods described herein for inhibiting morphogenesis of BVDV are also useful for inhibiting morphogenesis of HCV.
The substituents on the basic 1,5-dideoxy-1,5-imino-D-glucitol can influence the potency of the compound as an antiviral agent and additionally can preferentially target the molecule to one organ rather than another. […] Methods for comparing the potencies of various substituted compounds are provided in Example 1. […] Methods for determining preferential targeting properties of variously substituted DNJs is provided in Example 8 and FIG. 8 in U.S. Pat. No. 6,465,487.

HBV [2] = conditions: cited from earlier work
HIV = conditions: relative to cells not exposed; cited from earlier work
[3] = test system: bovine viral diarrhea virus (BVDV); conditions: comparison of N-butyl and N-nonyl DNJ; U.S. Pat. No. 6,465,487; cited from earlier work
HBV [4] = conditions: chronic HBV patients; cited from earlier work
HCV = conditions: cited from earlier work
HBV [5] = experiment: Secretion of HBV viral particles from Hep G2.2.15 cells (Proteinase K/DNase method); assay type: cell-based, Hepatitis B virus; conditions: 4.5 mM, 7 days, Hep G2 2.2.15 cells, FIG. 3
Description: Virus secretion into the media was detected by a method that would differentiate between enveloped and un-enveloped DNA. Glucosidase inhibitors reduce the secretion of enveloped virus. Enveloped virus is resistant to Proteinase K/Dnase treatment; un-enveloped virus is not. (+) or (−) indicates the addition of DNase. See text for more details. From left to right: Untreated; 3TC (3.5 μM); […] (4.5 mM).
Inhibition of the ER a-glucosidases inhibits the secretion of enveloped HBV. The first glycan processing events are the removal of the terminal glucose residues in the ER by α-glucosidase I and II (FIG. 2). The α-glucosidase inhibitor N-butyldeoxynojirimycin (NB-DNJ) has been used to study the role of glucose processing in several proteins including human immunodeficiency virus (HIV-1) gp120 (Fisher et al., 1995) and the enzyme tyrosinase which is involved in melanin biosynthesis (Petrescu et al., 1996). […] Hep G2 2.2.15 cells were either left untreated or treated with 3TC (3.5 μM) or the glucosidase inhibitor NB-DNJ (4.5 mM) and 7 days latter the amount of enveloped virus detected in the culture medium by a method that would differentiate between enveloped and un-enveloped virus (Wei et al., 1997). This method realizes upon the resistance of enveloped HBV to limited Proteinse K treatment (Wei et al., 1997). […]

Which “decrease in the amount of serum WHsAg” value (WHV; long term treatment) does the source give for Cc1cn([C@H]2O[C@@H](CO)[C@H](O)[C@H]2F)c(=O)[nH]c1=O [L-FMAU, 1-(2-Fluro-5-Methy-B-L-Arabinofuranosyl)-Uracil] here?
The value was 10 fold.

And the immune responses developed (WHV; woodchucks, drug alone)?
The immune responses developed was “limited cellular and humoral immune responses”.

Which “secretion of the M protein” value (HBV M protein) does the source give for CCCCCCCCCN1C[C@H](O)[C@@H](O)[C@@H](O)[C@H]1CO [NN-DGJ, reference compound] here?
Its value is “but not NN-DGJ which does not inhibit glucosidase, reduces the amount of M detected in the medium”.

What about the “glucosidase inhibition” value (glucosidase; negative control) of the same compound?
Its value is “does not inhibit glucosidase”.

Which “amount of M protein in the culture medium after 4 days of treatment” value (HBV M protein; 4.5 mM, 4 days, FIG. 6) does the source give for CCCCN1C[C@H](O)[C@@H](O)[C@H](O)[C@H]1CO [NB-DNJ, N-butyl-1,5-dideoxy-1,5-imino-D-glucitol] here?
Its value is “substantial decrease”.

And the “HBV M protein associated with the cells (retained)” value (HBV M protein; 4.5 mM, 6 days, ELISA, FIG. 5)?
The value was “retention of the HBV M protein”.

And the “HBV M protein associated with the culture medium (secreted)” value (HBV M protein; 4.5 mM, 6 days, ELISA, FIG. 5)?
Its value is “reduction in the amount of HBV M protein associated with the culture medium”.

What about the “level of M protein in the culture medium after compound removal” value (HBV M protein; after 4 days treatment, drug removed, FIG. 6) of the same compound?
The value was “remained depressed until the 5th day”.

And the “secretion of the M protein” value (HBV M protein)?
The value was “prevented the secretion of the M protein”.

What about the “M protein secretion at lower concentrations” value (HBV M protein; lower concentrations, which inhibit lower levels of glucosidase) of the same compound?
The value was “able to inhibit M protein secretion”.

And the “effect on cell number or viability” value (HBV M protein; sustained reduction experiment, data not shown)?
Its value is “not due to an effect on cell number or viability”.

And the “time to return of glucosidase enzyme function after removal of inhibitor” value (glucosidase; not shown or Tan et al, 1994)?
Its value is “less than 3 hours”.

What about the “toxicity toward host cells” value ([1]; conditions inhibiting BVDV-induced cytotoxicity) of the same compound?
Its value is “little, if any, toxicity”.

What about the BVDV-induced cytotoxicity ([1]; tissue culture) of the same compound?
Its BVDV-induced cytotoxicity is “inhibition of BVDV-induced cytotoxicity was achieved”.

And the “secretion of HBV viral particles” value (HBV [2]; Hep G2.2.15 cells)?
The value was “prevents the secretion of HBV viral particles”.

What about the “egress of subviral particles” value (HBV [2]; stable transfected HepG2 cells) of the same compound?
The value was “does not prevent egress”.

And the “egress of the mature HBV virion” value (HBV [2]; stable transfected HepG2 cells)?
The value was “prevents egress”.

And the “infectivity of virus particles released from HIV-infected cells” value (HIV)?
The value was “greatly reduced”.

What about the “potency in inhibiting the intracellular production of BVDV virus” value [3] of the same compound?
Its value is “less potent”.

For Alpha-interferon, which “treated patients achieving certain serological milestones” value (HBV [4]) is on record?
Its value is 7-40%.

What about the “patients with long-term improvement” value (HCV) of the same compound?
Its value is 5%.

Which “secretion of enveloped virus versus un-enveloped virus” value (HBV [5]) does the source give for OC[C@H]1NC[C@H](O)[C@@H](O)[C@@H]1O [DNJ, 1,5-dideoxy-1,5-imino-D-glucitol] here?
The value was “inhibits the secretion of enveloped virus more effectively than un-enveloped virus”.
